According to PubChem BioAssay (NCI):
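GI50 is the concentration that inhibits growth by half. At the TGI there is no net growth.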

Key:
Experiment in all cases: NCI tumour cell line growth inhibition, 384-well format; in the data active = GI50 below about 0.43 µM; inactive = the rest
[1] = tested on: HCC-2998 colon
[2] = tested on: UACC-62 melanoma
[3] = tested on: DU-145 prostate
[4] = tested on: CAKI-1 renal
[5] = tested on: HT29 colon
[6] = tested on: SF-268 CNS
[7] = tested on: CCRF-CEM leukemia
[8] = tested on: SF-295 CNS
[9] = tested on: SK-MEL-5 melanoma
[10] = tested on: HL-60(TB) leukemia
[11] = tested on: NCI/ADR-RES ovarian
[12] = tested on: HOP-92 NSCLC
[13] = tested on: PC-3 prostate
[14] = tested on: KM12 colon
[15] = tested on: RPMI-8226 leukemia
[16] = tested on: SK-MEL-2 melanoma
[17] = tested on: HCT-15 colon
[18] = tested on: SW-620 colon
[19] = tested on: T-47D breast
[20] = tested on: SF-539 CNS
[21] = tested on: HOP-62 NSCLC
[22] = tested on: A549 NSCLC
[23] = tested on: SK-OV-3 ovarian
[24] = tested on: OVCAR-4 ovarian
[25] = tested on: MALME-3M melanoma
[26] = tested on: IGROV1 ovarian
[27] = tested on: ACHN renal
[28] = tested on: NCI-H23 lung
[29] = tested on: OVCAR-3 ovarian
[30] = tested on: NCI-H460 NSCLC
[31] = tested on: RXF 393 renal
[32] = tested on: MOLT-4 leukemia
[33] = tested on: 786-0 renal
[34] = tested on: SR leukemia
[35] = tested on: U251 glioblastoma
[36] = tested on: HCT-116 colon
[37] = tested on: OVCAR-8 ovarian
[38] = tested on: NCI-H226 lung
[39] = tested on: M14 melanoma
[40] = tested on: SNB-19 CNS
[41] = tested on: MDA-MB-231 breast
[42] = tested on: COLO 205 colon
[43] = tested on: MDA-MB-435 melanoma
[44] = tested on: MCF7 breast
[45] = tested on: TK-10 renal
[46] = tested on: NCI-H322M lung
[47] = tested on: K-562 leukemia
[48] = tested on: UACC-257 melanoma
[49] = tested on: OVCAR-5 ovarian
[50] = tested on: SK-MEL-28 melanoma
[51] = tested on: BT-549 breast
[52] = tested on: A498 renal
[53] = tested on: MDA-MB-468 breast
[54] = tested on: LOX IMVI melanoma
[55] = tested on: SN12C renal
[56] = tested on: UO-31 renal

CCCC[C@@H](COC(=O)N(Cc1cccs1)Cc1cccs1)NC(=O)N[C@@H](CC(=O)OC)c1ccc2c(c1)OCO2
6.14 µM: TGI [15]
4.54 µM: TGI [32]
inactive: GI50 [1] > 100 µM | GI50 [2] 65 µM | GI50 [3] > 100 µM | GI50 [4] > 100 µM | GI50 [5] > 100 µM | GI50 [6] > 100 µM | GI50 [7] > 100 µM | GI50 [8] > 100 µM | GI50 [9] 83 µM | GI50 [10] 14.6 µM | GI50 [11] 55.5 µM | GI50 [12] > 100 µM | GI50 [13] > 100 µM | GI50 [14] > 100 µM | GI50 [15] 2.87 µM | GI50 [16] > 100 µM | GI50 [17] > 100 µM | GI50 [18] > 100 µM | GI50 [19] 50.5 µM | GI50 [20] > 100 µM | GI50 [21] > 100 µM | GI50 [22] > 100 µM | GI50 [23] > 100 µM | GI50 [24] > 100 µM | GI50 [25] > 100 µM | GI50 [26] > 100 µM | GI50 [27] > 100 µM | GI50 [28] 90.7 µM | GI50 [29] > 100 µM | GI50 [30] > 100 µM | GI50 [31] 5.08 µM | GI50 [32] 2.28 µM | GI50 [33] > 100 µM | GI50 [34] 6.03 µM | GI50 [35] > 100 µM | GI50 [36] 7.28 µM | GI50 [37] > 100 µM | GI50 [38] > 100 µM | GI50 [39] > 100 µM | GI50 [40] > 100 µM | GI50 [41] > 100 µM | GI50 [42] > 100 µM | GI50 [43] > 100 µM | GI50 [44] > 100 µM | GI50 [45] > 100 µM | GI50 [46] > 100 µM | GI50 [47] > 100 µM | GI50 [48] > 100 µM | GI50 [49] > 100 µM | GI50 [50] > 100 µM | GI50 [51] > 100 µM | GI50 [52] > 100 µM | GI50 [53] > 100 µM | GI50 [54] > 100 µM | GI50 [55] > 100 µM | GI50 [56] 53.2 µM
> 100 µM: TGI [1] | TGI [2] | TGI [3] | TGI [4] | TGI [5] | TGI [6] | TGI [7] | TGI [8] | TGI [9] | TGI [10] | TGI [11] | TGI [12] | TGI [13] | TGI [14] | TGI [16] | TGI [17] | TGI [18] | TGI [19] | TGI [20] | TGI [21] | TGI [22] | TGI [23] | TGI [24] | TGI [25] | TGI [26] | TGI [27] | TGI [28] | TGI [29] | TGI [30] | TGI [31] | TGI [33] | TGI [34] | TGI [35] | TGI [36] | TGI [37] | TGI [38] | TGI [39] | TGI [40] | TGI [41] | TGI [42] | TGI [43] | TGI [44] | TGI [45] | TGI [46] | TGI [47] | TGI [48] | TGI [49] | TGI [50] | TGI [51] | TGI [52] | TGI [53] | TGI [54] | TGI [55] | TGI [56]
